Measured values published in patent US20240051958A1, “DIACYLGLYCEROL KINASE (DGK) ALPHA INHIBITORS AND USES THEREOF” (priority 2022, published 2024).

Key:
DGKA = DGKA (Homo sapiens (Human), UniProt P23743); test: DGKA Inhibition ADP-Glo Assay; assay type: biochemical; settings: 40 μM ATP, 200 μM DLG in substrate working solution, 25° C., 60 min
Experimental: The DGKA inhibition reactions were performed using ADP-Glo assay. The reactions were carried out in 50 mM HEPES, 100 mM NaCl, 10 mM MgCl2, 1 mM CaCl2, 0.005% TritonX-100 and 1 mM DTT as working solution (pH=7.5). 30 nL DMSO solution of each test compound (Top concentration 0.4 μM with 10 point, 4-fold dilution series for each compound) were transferred to 384 well plate by Echo and 5 μL DGKA (SignalChem, D21-10BG) enzyme working solution at 2×final reaction concentration was added to each well. After incubated at 25° C. for 15 minutes, 5 μL substrate working solution contain 40 μM ATP (Promega, V915B) and 200 μM DLG (SignalChem, D430-59) were added to initiate reaction. After enzymatic reaction at 25° C. for 60 min, ADP Glo assay reagents (Promega, V9102) were added and luminescence was recorded using an EnVision following the instruction of manual. […] The IC50 value was calculated via a regression analysis of the inhibition rate.

Human Pan T cells = test: IL-2 Release Detection Assay; assay type: cell-based; settings: for Activation fold: Top activation/DMSO control; for Activation % at 100 nM: fitted curve at 100 nM/DMSO control*100%
Experimental: Add dilutions of compounds into the cells and incubate at 37° C. &5% CO2 for 24 hours. IL-2 in cell supernatant was detected by ELISA Kit (R&D, DY202). […] Top and Bottom: Plateaus in same units as Y. LogEC50: same log units as X. Activation fold: Top activation/DMSO control. Activation % at 100 nM: Activation of non-linear regression equation curve at the concentration of 100 nM/DMSO control*100%.

[1] = Pharmacokinetic Profile Evaluation (mouse PK); assay type: in vivo, CD-1 mice; settings: CD-1, plasma, oral administration at 5 mg/kg
Experimental: Species and strain: CD-1 mice of SPF. Source: Sino-British SIPPR/BK Lab Animal Ltd, Shanghai. 3 mice were intravenously administrated with given compounds (Formulation: 5% DMSO+10% Solutol+85% Saline) or orally gavage administrated with given compounds (Formulation: 5% DMSO+10% Solutol+85% Saline). The blood samples were taken via cephalic vein at timepoints 0.083 h, 0.25 h, 0.5 h, 1 h, 2 h, 4 h, 8 h and 24 h after intravenous administration or at timepoints 0.25 h, 0.5 h, 1 h, 2 h, 4 h, 6 h, 8 h and 24 h after oral gavage administration, 30 μL/time point. Blood samples were placed in tubes containing K2-EDTA and stored on ice until centrifuged. The blood samples were centrifuged at 6800 g for 6 minutes at 2-8° C. within 1 h after collected and stored frozen at approximately −80° C. An aliquot of 10 μL plasma samples were protein precipitated with 200 μL MeOH in which contains 10 ng/mL Verapamil (IS). The mixture was vortexed for 1 min and centrifuged at 18000 g for 7 min. Transfer 180 μL supernatant to 96 well plates. An aliquot of 6 μL supernatant was injected for LC-MS/MS analysis by LC-MS/MS-04 (API4000) instrument. The analytical results were confirmed using quality control samples for intra-assay variation. The accuracy of >66.7% of the quality control samples should be between 80-120% of the known value(s). Standard set of parameters including Area Under the Curve (AUC(0-t) and AUC(0-∞)), elimination half-live (T1/2), maximum plasma concentration (Cmax), will be calculated using noncompartmental analysis modules in FDA certified pharmacokinetic program Phoenix WinNonlin 7.0 (Pharsight, USA).

Sequence of DGKA (P23743 whole entry): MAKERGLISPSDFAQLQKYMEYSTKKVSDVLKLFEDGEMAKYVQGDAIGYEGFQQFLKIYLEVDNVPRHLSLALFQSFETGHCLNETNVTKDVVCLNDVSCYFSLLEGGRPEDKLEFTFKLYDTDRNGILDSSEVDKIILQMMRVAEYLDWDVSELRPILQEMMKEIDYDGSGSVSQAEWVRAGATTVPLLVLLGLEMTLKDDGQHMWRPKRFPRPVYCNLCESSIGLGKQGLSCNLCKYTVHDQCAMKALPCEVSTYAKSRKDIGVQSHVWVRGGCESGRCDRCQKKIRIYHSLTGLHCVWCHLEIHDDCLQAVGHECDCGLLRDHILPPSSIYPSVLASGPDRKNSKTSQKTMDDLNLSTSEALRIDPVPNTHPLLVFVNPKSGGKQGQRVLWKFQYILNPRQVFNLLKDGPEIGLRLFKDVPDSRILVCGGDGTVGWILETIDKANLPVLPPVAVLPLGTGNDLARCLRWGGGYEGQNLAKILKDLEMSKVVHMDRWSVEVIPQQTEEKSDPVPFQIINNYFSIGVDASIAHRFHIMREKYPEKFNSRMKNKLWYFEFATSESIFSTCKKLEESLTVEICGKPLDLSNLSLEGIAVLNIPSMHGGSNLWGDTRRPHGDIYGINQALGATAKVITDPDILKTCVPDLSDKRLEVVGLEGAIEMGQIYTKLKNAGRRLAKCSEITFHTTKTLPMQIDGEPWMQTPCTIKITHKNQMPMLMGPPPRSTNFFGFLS

Structure (SMILES) | IC50 (DGKA) | Activation fold (Human Pan T cells) | Activation % at 100 nM (Human Pan T cells) | AUC(0-inf) [1] | AUC(0-t) [1] | Cmax [1] | half-life [1]
Cn1c(=O)cc(N2CCC(c3nc4cc(F)ccc4o3)CC2)c2nc(C#N)ccc21 [Example 12, 8-(4-(5-fluorobenzo[d]oxazol-2-yl)piperidin-1-yl)-5-methyl-6-oxo-5,6-dihydro-1,5-naphthyridine-2-carbonitrile] | 1.35 nM | 8.5 | 340% | 5940 ng·h/mL | 5460 ng·h/mL | 1100 ng/mL | 3.56 h
Cc1ccc2oc(C3CCN(c4cc(=O)n(C)c5cc(O[C@@H]6CCOC6)c(C#N)nc45)CC3)nc2c1 [Example 28, (R)-5-methyl-8-(4-(5-methylbenzo[d]oxazol-2-yl)piperidin-1-yl)-6-oxo-3-((tetrahydrofuran-3-yl)oxy)-5,6-dihydro-1,5-naphthyridine-2-carbonitrile] | 0.14 nM | – | – | 3460 ng·h/mL | 3410 ng·h/mL | 677 ng/mL | 2.67 h
Cc1ccc2oc(C3CCN(c4cc(=O)n(C)c5cc(OCCO)c(C#N)nc45)CC3)nc2c1 [Example 23, 3-(2-hydroxyethoxy)-5-methyl-8-(4-(5-methylbenzo[d]oxazol-2-yl)piperidin-1-yl)-6-oxo-5,6-dihydro-1,5-naphthyridine-2-carbonitrile] | 0.27 nM | 24.5 | 931% | 12100 ng·h/mL | 12000 ng·h/mL | 1820 ng/mL | 3.51 h
Cc1ccc2oc(C3CCN(c4cc(=O)n(C)c5ccc(C#N)nc45)CC3)nc2c1 [Example 1, 5-methyl-8-(4-(5-methylbenzo[d]oxazol-2-yl)piperidin-1-yl)-6-oxo-5,6-dihydro-1,5-naphthyridine-2-carbonitrile] | 1.99 nM | 17.7 | 416% | 6150 ng·h/mL | 5980 ng·h/mL | 1880 ng/mL | 1.46 h
